Data on 3 molecules can be found in patent publication US20230413816A1, “COMPOSITIONS COMPRISING ALLYL SULFIDE AND A SURFACTANT AND METHODS OF USING SAME” (The State of Israel, Ministry of Agriculture & Rural …, priority 2020, published 2023).

One test concerns Grapevines. The experiment in a line: Bud break scored on the BBCH scale, commercial vineyard in South Africa (Example 3). The test is classed as in vivo, grapevine. Particulars: for bud break score (BBCH scale): 36 days after treatment, untreated score 19; for bud-breaking efficiency compared with commercially available agents (HC): sulfide compound with 2% w/w T7. From the text: FIGS. 5A-5B are bar graphs presenting a comparison between the bud break efficiency of the exemplary compositions of the invention and controls in vine. The X-axis represents different treatments, and the Y-axis represents vine growth stage according to the BBCH scale, as scored 36 days after treatment. FIG. 5A represents a comparison between the synergistic bud break efficiency of T7 in combination with different sulfide compounds (DADS and dimethyl sulfide, DMS). 1—untreated vines (negative control); 2—2.5% w/w DMS and 2% w/w T7; 3—5% w/w DMS and 2% w/w T7; 4—HC (positive control); 5—5% w/w DADS and 2% w/w T7. FIG. 5B represents a comparison between the synergistic bud break efficiency of 6% w/w DADS in combination with various concentrations of T7 (entries 4-7) versus controls (entries 1-2, and 8). 1—untreated vines (negative control); 2—12% w/w T7 no DADS; 3—6% w/w DADS no T7; 4—6% w/w DADS and 12% w/w T7; 5—6% w/w DADS and 1% w/w T7; 6—6% w/w DADS and 2% w/w T7; 7—6% w/w DADS and 0.5% w/w T7; 8—HC (positive control).
Grapevines in a commercial vineyard in South Africa were sprayed exemplary agricultural compositions of the invention. Two different experimental treatments have been performed on 5 blocks of 14 vines. The bud break efficiency of each treatment has been evaluated by scoring 60 buds per vine according to BBCH scale at different time points after treatment. BBCH values represent average values of five blocks per treatment. The tested exemplary agricultural compositions utilized for each experimental treatment were as follows: • 2% w/w of T7 (see Table 1) together with various concentrations (2.5, 5 and 6% w/w) of the sulfide compound ([…] (DMS); and DADS). The effect of these treatments was compared to a commercial formulation comprising 50% HC; as well as to a negative control, i.e. untreated vines. The results of this experiment are represented in FIG. 5A. • 6% w/w DADS together with various concentrations (0.5, 1, 2 and 12% w/w) of T7. The effect of these treatments was compared to a commercial formulation comprising 50% HC; as well as to negative controls including untreated plant, and plants treated with 12% w/w T7 and 6% w/w DADS, respectively. The results of this experiment are represented in FIG. 5B.

The next test deals with whole vine. Conditions: applied to the whole vine rather than to cuttings; cited from earlier work.
The next test has as its system Kiwi plants. As to the kind of experiment: Bud break trial on kiwi (Example 4). The class given is in vivo. Particulars: 49 days after treatment. From the text:
The inventors performed numerous experiments to assess the effect of application of an exemplary composition of the invention (e.g. about 6% w/w DADS and about 4% w/w T7) on bud break in various plants. For each test from about 500 to about 1500 l/ha of the composition have been applied (e.g. by spraying) to the orchard, to result in almost complete wetting of the treated plants. The tested plant species included kiwi, cherry, apple, and plum.

Test [1] deals with spur-pruned cv. Early Sweet vines. As to the kind of experiment: Bud breaking on whole vines in a vineyard (Example 1, Jordan Valley). The class given is in vivo, grapevine. The procedure:
FIG. 1 is a graph presenting a comparison between the bud break efficiency of the exemplary compositions of the invention and controls, when applied to spur-pruned cv. Early Sweet vines at the beginning of January in a vineyard located at Argaman, the Jordan Valley, Israel. Bud counts were conducted once a week and started about […] after treatment. The tested combinations were as follows: (a) DADS at 6% w/w, together with (b) 2% w/w of a non-ionic surfactant (abbreviated as T3-D2, T4-D2, T5-D2, T6-D2 or T7-D2, respectively) or of a cationic surfactant (Armobreak®, abbreviated as T1-D2). The controls were as follows: (a) plants treated with Triton X-100 (abbreviated as Con), and (b) single treatments with DADS, HC, and the surfactants (abbreviated as T1, T3, T4, T5, T6 or T7, respectively). The chemical structures of the surfactants are as represented in Table 1, below. The Y-axis represents the percentage of the bursting buds out of the total number of the buds on a vine.
The Y-axis represent the percentage of bursting basal buds out of total number of spurs on a vine.
Mature spur-pruned cv. […]
Each formulation was sprayed onto five blocks of two vines, wherein the values presented in FIG. 1 are an average of the ten tested grapevines. […] Total number of buds was recorded once for each vine, and number of bursting buds were recoded for each vine at 22, 27, 34 and 41 d after treatment.

Take `CSC` [DMS, dimethyl sulfide]: the “bud break score (BBCH scale)” value is on record as 24 in the test on Grapevines (2.5% w/w DMS and 2% w/w T7); 30-31 with Grapevines (5% w/w DMS and 2% w/w T7). Besides, the “bud-breaking efficiency compared with commercially available agents (HC)” value with Grapevines was “comparable with the efficiency of commercially available agents”.
Consider `C=CCSSCC=C` [DADS, diallyl disulfide], for which the “bud-breaking efficiency compared with commercially available agents (HC)” value in the test on Grapevines was “comparable with the efficiency of commercially available agents”. Further, the “bud break enhancing effect compared with HC” value with whole vine is “very limited and inferior to HC”.
As for `N#CN` [HC, hydrogen cyanamide], in the test with Kiwi plants, the bud break is recorded as 24%, the “bud break of HC relative to the composition of the invention (times less)” value is recorded as around 2 times and the “green foliage coverage score (of 10)” value was 2. The “bud break efficiency, ranking among the treatments of FIG. 1” value in test [1] (6% w/w DADS + 2% w/w surfactant, or HC, percentage of bursting buds) is “superior”. In test [1] (FIG. 3, basal buds), the “bud break uniformity along a spur” value was “significantly less uniform bud break”.
